Measurements reported in US20100021936A1, “Sensor for Spores” (priority 2007, published 2010).

Legend:
[1] = test system: Bacillus megaterium QM B1551 spores; assay type: cell-based
[2] = test system: CwlJ knock-out strain of Bacillus megaterium; assay type: cell-based
[3] = test system: B. megaterium QM B1551 "receptorless" spore; assay type: cell-based, Bacillus megaterium
[4] = test system: antibody-immobilised spores; assay type: cell-based

Row | Compound | concentration of Ca-DPA at which spores germinate [1] [mM] | germination in response to exogenous Ca-DPA [2] | germination response of receptorless spores [3] | germination response by micrographs [4]
1 | O=C(O)c1cccc(C(=O)O)n1 [Ca-DPA, dipicolinic acid] | ~30 | does not germinate | – | –
2 | C[C@H](N)C(=O)O [L-alanine] | – | – | lost the ability to respond | transition from phase bright spores to phase dark
